Here are results for 133 molecules from the OPERA property sets (Mansouri et al. 2018).

One may read the logP as a log measure of how a compound divides between an organic and an aqueous phase.

Each structure is given as a SMILES string. Peptide text beside a SMILES is read from it.

In turn, `CN(C)CCC(c1ccc(Cl)cc1)c1ccccn1` (stereo not drawn) displayed a logP of 3.38.
`CCC(=O)NN` displayed a logP of -1.
The figure for `CNC(=O)Oc1ccc(SC)cc1` is 1.92.
As to `O=S(=O)(c1ccccc1)c1ccc2ncccc2c1`, the logP was found to be 2.57.
For `CC1COC(=O)O1` (stereo not drawn) the value was -0.41.
`CCOC=O` yielded a lipophilicity (logP) of 0.23.
For `c1ccc(C23CC4CC(CC(C4)C2)C3)cc1` the value was 5.55; for `COC(=O)CCCCCC(=O)OCC(=O)C1(O)CCC2C3CCC4=CC(=O)CCC4(C)C3C(O)CC21C` (stereo not drawn), 3.7.
The figure for `COc1ccc(NS(=O)(=O)c2ccc(N)cc2)nn1` is 0.32.
The figure for `NC(=O)C(=Cc1ccccc1)C(N)=O` is -0.13.
Consider `Cc1ccc(NC(=O)N(C)C)cc1Cl`, for which the log partition coefficient (logP) is 2.41.
For `OCCCc1ccccn1` the value was 0.58; for `CCCCCCCCOC(N)=O`, 2.84; for `NNC(=O)c1cccc([N+](=O)[O-])c1`, 0.23.
For `CCOC(=O)C(=Cc1cccc([N+](=O)[O-])c1)C(=O)OCC` the value was 2.71; for `O=NN1CCCCC1`, 0.36; for `NNC(=O)c1cccc(Cl)c1`, 1.18.
The figure for `COc1ccc2c(c1)N(CCCN(C)C)c1ccccc1S2` is 4.9; for `Cc1ccc(NS(=O)(=O)C(F)(F)F)cc1` it is 3.6; for `CC(Cl)[N+](=O)[O-]` (stereo not drawn) it is 1.1.
In turn, `Oc1nc(Cl)c(Cl)cc1Cl` displayed a lipophilicity (logP) of 3.21.
The figure for `CCOP(=S)(OCC)Oc1nc(Cl)n(C(C)C)n1` is 3.82; for `COCC(=O)Nc1c(I)c(C(=O)NCC(O)CO)c(I)c(C(=O)N(C)CC(O)CO)c1I` (stereo not drawn) it is -2.05.
Molecule `CCCCC(=O)OCC(=O)C1(O)C(C)CC2C3CCC4=CC(=O)C=CC4(C)C3(F)C(O)CC21C` (stereo not drawn) registered a logP of 3.87.
For `CCCCC(=O)OCC(=O)[C@@]1(OC(=O)CCCC)[C@@H](C)C[C@H]2[C@@H]3CCC4=CC(=O)C=C[C@]4(C)[C@@]3(F)[C@@H](O)C[C@@]21C` the value was 5.26.
The figure for `COc1ccc2c(c1)OC(C)(C)C=C2` is 3.35.
The figure for `CC(=O)NC(Cc1c[nH]c2ccccc12)C(=O)NCC(=O)NC(Cc1ccccc1)C(N)=O` (stereo not drawn) (Ac-Trp-Gly-Phe-NH2; configuration not given here) is 0.99.
On to `Cc1noc(NS(=O)(=O)c2ccc(N)cc2)c1C`, for which the logP was 1.01.
The figure for `Nc1ccc(Cl)cc1N` is 1.28; for `Nc1cccc2nc3ccccc3cc12` it is 2.47.
`CCOc1ccc(N)cc1` yielded a logP of 1.24.
Turning to `CC(C)Oc1ccc(CC#N)cc1`, the logP stood at 2.53.
For `CC(C)CC(=O)NC(N)=O` the value was 0.45; for `O=C1C=CC(=O)C=C1`, 0.2; for `COc1ccccc1OC(C)=O`, 1.38.
The molecule `CCCC[n+]1ccccc1.[Br-]` returned a logP of -2.69.
For `Cc1ccc(Cl)cc1` the value was 3.33; for `CNC(=O)Oc1ccccc1Br`, 1.77; for `CCOc1ccccc1OCC`, 2.42.
The figure for `O=C(O)CN1CCN(C(=O)Cn2c(=O)sc3ccc(Cl)cc32)CC1` is -0.71.
For `Oc1ccc2cccc(O)c2c1` the value was 1.94; for `Brc1ccc(-c2ccc(Br)cc2)cc1`, 5.72.
Turning to `O=NN(c1ccccc1)c1ccccc1`, the log partition coefficient (logP) came to 3.13.
As to `N#Cc1ccc(C#N)cc1`, the lipophilicity (logP) is 0.93.
For `CC(=O)Oc1cccc(C)c1` the value was 2.09.
The figure for `CNC(=O)Oc1cccc(C(C)C)c1` is 2.63; for `CCCCCC1=Nc2cc(Cl)c(S(N)(=O)=O)cc2S(=O)(=O)N1` it is 2.01.
For `CC(=O)N[C@H](C(=O)N[C@H](C(N)=O)C(C)C)[C@@H](C)O` (Ac-Thr-Val-NH2) the value was -1.25.
Molecule `CC(=O)N[C@@H](CO)C(=O)N[C@@H](Cc1ccccc1)C(N)=O` displayed a logP of -0.79.
For `OC(CNCC(O)COc1ccccc1)COc1ccccc1` (stereo not drawn) the value was 2.52; for `FC(Cl)(Cl)Cl`, 2.53.
The molecule `Nc1cc(Cl)c(Cl)cc1N` had a logP of 2.
For `CC(=O)Oc1ccccc1C(C)C` the value was 2.78; for `COC(=O)c1ccc(NC(C)=O)cc1`, 1.79; for `CC=Cc1c(OC)cc(Cc2cnc(N)nc2N)cc1OCC`, 2.65.
For `CCCCCCOc1ccccc1NC(=O)OCCN1CCCCC1` the value was 5.29; for `C/C=N/O`, -0.13.
`ClCBr` displayed a lipophilicity (logP) of 1.41.
The figure for `O=Cc1cccc(C(F)(F)F)c1` is 2.47.
For `O=C(Oc1ccc(N=C=S)cc1)c1ccccc1` the value was 4.9.
The figure for `Cn1ccnc1` is -0.06; for `O=C(O)c1ccc(C(F)(F)F)cc1` it is 3.1; for `Cn1c(C=[N+](C)[O-])cnc1[N+](=O)[O-]` it is 0.04.
In turn, `O=c1[nH]cnc2ccccc12` came in with a logP of 0.77.
With `N#Cc1ccc(C(O)C(CO)NC(=O)C(Cl)Cl)cc1` (stereo not drawn), the logP was 0.78.
Consider `NS(=O)(=O)CCCOc1ccc([N+](=O)[O-])cc1`, for which the logP came to 0.97.
For `CNC(=O)Oc1ccccc1OC` the value was 0.81; for `O=C(O)Cc1ccc(F)cc1`, 1.55.
Molecule `CCC(C)c1ccccc1OC(=O)NC` (stereo not drawn) registered a log partition coefficient (logP) of 2.78.
For `CCOP(=O)(OCC)OCC` the value was 0.8.
The figure for `C1CCCC1` is 3; for `CNC(=O)ON=Cc1ccccc1` it is 1.49.
`C1OC1CN1CCN(CC2CO2)CC1` (stereo not drawn): the log partition coefficient (logP) is -0.84.
With `CCCOc1ccccc1`, the lipophilicity (logP) is 3.18.
For `C1COCCOCCOCCOCCO1` the value was -0.48.
The figure for `NNC(=O)c1ccnc(N)c1` is -0.98.
For `Cc1ccccc1C(=O)Nc1cccc(OC(C)C)c1` the value was 3.66; for `Oc1ccc(Cl)c2ccccc12`, 3.94.
`O=NN(CCCl)C(=O)NC1CC2CCC1C2` (stereo not drawn) returned a log partition coefficient (logP) of 2.98.
The figure for `CNC(=O)Oc1ccc(C(C)=O)cc1` is 1.01.
The figure for `O=C(O)CCS` is 0.43; for `N#C/C=C/c1ccccc1` it is 1.96; for `CC(C)(C)C(=O)C(Oc1ccc(Cl)cc1)n1cncn1` (stereo not drawn) it is 2.77.
The figure for `COCC(c1c(O)c2ccccc2oc1=O)c1c(O)c2ccccc2oc1=O` is 1.38.
With `Nc1cc2ccccc2nn1`, the logP was determined as 1.
On to `NC(=O)Nc1ccc(Cl)cc1`, for which the log partition coefficient (logP) was 1.8.
With `Brc1ccsc1Br`, the log partition coefficient (logP) was 3.53.
The figure for `CCC1COC(Cn2cncn2)(c2ccc(Cl)cc2Cl)O1` (stereo not drawn) is 3.1; for `CSc1ccc(COC(=O)N(C)C)cc1` it is 2.86.
For `Cc1c(Cl)cccc1Nc1ccccc1C(=O)O` the value was 5.17; for `Clc1cccs1`, 2.54; for `CC(=O)NC(C)C(=O)NC(Cc1ccc(O)cc1)C(=O)NC(Cc1ccccc1)C(N)=O` (stereo not drawn) (Ac-Ala-Tyr-Phe-NH2; configuration not given here), 0.26.
`OCc1cccc(O)c1` showed a lipophilicity (logP) of 0.49.
`CN1CCc2cccc3c2[C@H]1Cc1ccc(O)c(O)c1-3` displayed a logP of 2.3.
For `C=C(Br)CC1(C(C)C)C(=O)NC(=O)N(C)C1=O` (stereo not drawn) the value was 2.11.
The figure for `CC(=O)OCC1OC(n2ccnc2[N+](=O)[O-])C(OC(C)=O)C(OC(C)=O)C1OC(C)=O` (stereo not drawn) is 0.52.
For `CC(=O)NN` the value was -1.58.
`COCCCc1ccccc1` registered a logP of 2.7.
In turn, `OCCNc1ccccc1` yielded a lipophilicity (logP) of 0.82.
The figure for `c1ccnnc1` is -0.72.
The figure for `Cc1cccc(C)c1[N+](=O)[O-]` is 2.95; for `CC1(C)O[C@@H]2C[C@H]3[C@@H]4C[C@H](F)C5=CC(=O)C=C[C@]5(C)[C@@]4(F)[C@@H](O)C[C@]3(C)[C@]2(C(=O)CO)O1` it is 2.48.
The figure for `O=C(O)C=Cc1ccc([N+](=O)[O-])cc1` is 2.12.
As to `Clc1ccc(Cl)c(Cl)c1Cl`, the logP was determined as 4.6.
Regarding `Cc1ccc(Cc2c[nH]c(NCCSCc3ccc(CN(C)C)o3)nc2=O)cn1`, the lipophilicity (logP) is 2.06.
The figure for `O=Nc1ccccc1` is 2.01; for `Oc1c(Cl)cc(Cl)c(Cl)c1Cl` it is 4.45.
For `COP(=O)(OC)Oc1ccc([N+](=O)[O-])cc1` the value was 1.33; for `CCCCC(=O)c1ccc[nH]1`, 2.42.
For `Cn1ccc2ccccc21` the value was 2.72.
`C=CC=O`: the logP is -0.01.
The figure for `Cc1ccc(C(C)C)cc1` is 4.1; for `CC(Br)C(=O)O` (stereo not drawn) it is 0.92.
Molecule `CCCCCCCCO` had a logP of 3.
The figure for `CCCCOc1ccc(C(N)=O)cc1` is 2.48; for `COCc1ccc([N+](=O)[O-])o1` it is 0.89.
The molecule `O=NN(CCCl)C(=O)NC1CCCCC1` yielded a logP of 2.83.
`CCCCn1cc(C)c(=O)[nH]c1=O` displayed a logP of 0.91.
For the molecule `CC(C)NCc1cccnc1`, the lipophilicity (logP) was determined as 0.82.
With `CCN(CC)C(=O)C1C2CC3C(OC(=O)C31)C2O` (stereo not drawn), the lipophilicity (logP) is 0.15.
The figure for `COc1ccccc1S(I)=C(N(C)C)N(C)C` (stereo not drawn) is -0.52; for `CC(=O)Oc1ccccc1C#N` it is 1.33; for `CCCCS` it is 2.28.
The figure for `Cc1ccc(S(I)=C(N(C)C)N(C)C)cc1Cl` (stereo not drawn) is 0.45; for `COc1cc2c(c(OC)c1O)-c1ccc(OC)c(=O)cc1[C@@H](NC(=O)C(F)(F)F)CC2` it is 1.67; for `CCn1cc(C(=O)O)c(=O)c2cnc(N3CCNCC3)nc21` it is -2.15.
The figure for `CSc1cccc(OCC(=O)O)c1` is 1.9; for `CCOC(=O)C(=Cc1cccc(C)c1)C(=O)OCC` it is 3.55.
With `Brc1ccsc1`, the lipophilicity (logP) was 2.62.
The figure for `CCC(=O)OCC(=O)[C@@]1(OC(=O)CC)[C@@H](C)C[C@H]2[C@@H]3CCC4=CC(=O)C=C[C@]4(C)[C@@]3(F)[C@@H](O)C[C@@]21C` is 4.07.
Take `CCOP(=S)(OCC)SCCSCC`: the logP is 4.02.
The figure for `CCCCOCC1CO1` (stereo not drawn) is 0.63.
`CC#CC` came in with a log partition coefficient (logP) of 1.46.
